Assay results: patent publication US8404680B2, “N-[3-(5-amino-3,3a,7,7a-tetrahydro-1H-2,4-dioxa-6-aza-inden-7-yl)-phenyl]-amides as BACE1 and/or BACE2 inhibitors” (Hoffmann-La Roche Inc., priority 2011, dated 2013)

Assays:
[1] = target: T1, BACE1 (Homo sapiens, UniProt P56817); assay: Cellular Aβ-lowering assay; format: cell-based; settings: human HEK293 cells stably expressing human APP wt (APP695); Aβ40 in supernatant by ELISA after 18-20 hrs
T1 construct: Human HEK293 cells which are stably transfected with a vector expressing a cDNA of the human APP wt gene (APP695); endogenous in cells; host or cells: HEK293 (human), stably transfected with human APP695 wt
T1 sequence (P56817 46-501): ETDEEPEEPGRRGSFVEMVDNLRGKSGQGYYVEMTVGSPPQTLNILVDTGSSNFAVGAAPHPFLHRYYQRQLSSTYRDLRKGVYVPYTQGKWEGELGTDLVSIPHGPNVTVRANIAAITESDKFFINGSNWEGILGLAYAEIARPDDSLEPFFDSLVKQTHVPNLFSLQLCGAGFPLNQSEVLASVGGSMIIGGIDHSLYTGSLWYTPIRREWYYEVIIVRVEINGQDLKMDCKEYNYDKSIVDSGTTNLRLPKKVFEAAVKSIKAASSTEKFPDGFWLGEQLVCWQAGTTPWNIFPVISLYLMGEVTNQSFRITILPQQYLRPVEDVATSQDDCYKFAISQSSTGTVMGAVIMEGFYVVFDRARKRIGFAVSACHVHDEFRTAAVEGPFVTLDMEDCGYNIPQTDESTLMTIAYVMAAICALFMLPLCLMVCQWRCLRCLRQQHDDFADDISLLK
Procedure: Cellular Aβ-Lowering Assay:
Human HEK293 cells which are stably transfected with a vector expressing a cDNA of the human APP wt gene (APP695) were used to assess the potency of the compounds in a cellular assay. The cells were seeded in 96-well microtiter plates in cell culture medium (Iscove, plus 10% (v/v) fetal bovine serum, glutamine, penicillin/streptomycin) to about 80% confluence and the compounds were added at a 10× concentration in 1/10 volume of medium without FCS containing 8% DMSO (final concentration of DMSO was kept at 0.8% v/v). After 18-20 hrs incubation at 37° C. and 5% CO2 in a humidified incubator the culture supernatant was harvested for the determination of Aβ40 concentrations. 96well ELISA plates (e.g., Nunc MaxiSorb) were coated with monoclonal antibody which specifically recognize the C-terminal end of Aβ40 (Brockhaus et al., NeuroReport 9, 1481-1486; 1998). After blocking of non-specific binding sites with e.g. 1% BSA and washing, the culture supernatants were added in suitable dilutions together with a horseradish peroxidase-coupled Aβ detection antibody (e.g., antibody 4G8, Senetek, Md. Heights, Mo.) and incubated for 5 to 7 hrs. Subsequently the wells of the microtiter plate were washed extensively with Tris-buffered saline containing 0.05% Tween 20 and the assay was developed with tetramethylbenzidine/H2O2 in citric acid buffer. After stopping the reaction with one volume 1 NH2SO4 the reaction was measured in an ELISA reader at 450 nm wavelength. The concentrations of Aβ in the culture supernatants were calculated from a standard curve obtained with known amounts of pure Aβ peptide.

[2] = target: T2, BACE2 (Rattus norvegicus, UniProt Q6IE75); assay: Assay for BACE inhibition by measuring cellular TMEM27 cleavage; format: cell-based; settings: INS-TMEM27 (INS1e-derived rat cell line, inducible hTMEM27); shed TMEM27 in medium by ELISA
T2 construct: endogenous cellular BACE2 in the Ins1e rat cell line; endogenous in cells; host or cells: INS-TMEM27 (INS1e-derived rat cell line, TetOn-inducible full-length hTMEM27)
T2 sequence (Q6IE75 63-514): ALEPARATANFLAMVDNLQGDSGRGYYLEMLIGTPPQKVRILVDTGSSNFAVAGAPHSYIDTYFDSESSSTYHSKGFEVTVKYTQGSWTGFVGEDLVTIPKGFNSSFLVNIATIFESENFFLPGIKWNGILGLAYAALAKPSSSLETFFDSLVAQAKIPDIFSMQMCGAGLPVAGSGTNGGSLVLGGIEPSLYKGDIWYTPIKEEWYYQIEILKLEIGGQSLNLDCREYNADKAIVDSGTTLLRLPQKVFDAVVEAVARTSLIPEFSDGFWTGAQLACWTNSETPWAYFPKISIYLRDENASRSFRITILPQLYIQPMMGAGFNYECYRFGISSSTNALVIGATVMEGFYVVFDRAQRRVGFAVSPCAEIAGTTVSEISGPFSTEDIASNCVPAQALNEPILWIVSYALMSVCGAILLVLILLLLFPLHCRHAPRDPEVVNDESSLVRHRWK
Text: Assay for BACE Inhibition by Measuring Cellular TMEM27 Cleavage:
The assay uses the principle of inhibition of human TMEM27 cleavage by endogenous cellular BACE2 in the Ins1e rat cell line and shedding from the cell surface into the culture medium, followed by detection in an ELISA assay Inhibition of BACE2 prevents the cleavage and shedding in a dose-dependent manner.
The stable cell line “INS-TMEM27” represents an INS1e-derived cell line with inducible expression (using the TetOn system) of full-length hTMEM27 in a doxycycline-dependent manner. The cells are cultured throughout the experiment in RPMI1640+ Glutamax (Invitrogen) Penicillin/Streptomycin, 10% Fetal bovine serum, […], […], 100 micrograms/ml G418 and 100 microgram/ml hygromycin and are grown inadherent culture at 37° C. in a standard CO2 cell culture incubator.
INS-TMEM27 cells are seeded in 96-well plates. After 2 days in culture, BACE2 inhibitor is added in a range of concentrations as required by the assay and after a further two hours, doxycycline is added to a final concentration of 500 ng/ml. The cells are incubated for a further 46 hours and the supernatant harvested for detection of shed TMEM27.
An ELISA assay (using a pair of mouse anti-human-TMEM27 antibodies, raised against the extracellular domain of TMEM27) is used for detection of TMEM27 in the culture medium. An EC50 for BACE2 inhibition is calculated using the ELISA readout for each inhibitor concentration with standard curve-fitting software such as XLFit for the Excel spreadsheet program.

C[C@]1(c2cc(NC(=O)c3cnc(OCC(F)(F)F)cn3)ccc2F)N=C(N)O[C@@H]2COC[C@@H]21 [Example 8, 5-(2,2,2-Trifluoro-ethoxy)-pyrazine-2-carboxylic acid [3-((3aS,7S,7aS)-5-amino-7-methyl-3,3a,7,7a-tetrahydro-1H-2,4-dioxa-6-aza-inden-7-yl)-4-fluoro-phenyl]-amide]
IC50 [1]: 1.8 nM | IC50 [2]: 209 nM

C[C@]1(c2cc(NC(=O)c3ccc(Cl)cn3)ccc2F)N=C(N)O[C@@H]2COC[C@@H]21 [Example 1, 5-Chloro-pyridine-2-carboxylic acid [3-((3aS,7S,7aS)-5-amino-7-methyl-3,3a,7,7a-tetrahydro-1H-2,4-dioxa-6-aza-inden-7-yl)-4-fluoro-phenyl]-amide]
IC50 [1]: 0.7 nM | IC50 [2]: 36 nM

C[C@]1(c2cc(NC(=O)c3ccc(OCC(F)(F)F)cn3)ccc2F)N=C(N)O[C@@H]2COC[C@@H]21 [Example 6, 5-(2,2,2-Trifluoro-ethoxy)-pyridine-2-carboxylic acid [3-((3aS,7S,7aS)-5-amino-7-methyl-3,3a,7,7a-tetrahydro-4H-2,4-dioxa-6-aza-inden-7-yl)-4-fluoro-phenyl]-amide]
IC50 [1]: 6 nM | IC50 [2]: 556 nM

C[C@]1(c2cc(NC(=O)c3ccc(F)cn3)ccc2F)N=C(N)O[C@@H]2COC[C@@H]21 [Example 3, 5-Fluoro-pyridine-2-carboxylic acid [3-((3aS,7S,7aS)-5-amino-7-methyl-3,3a,7,7a-tetrahydro-4H-2,4-dioxa-6-aza-inden-7-yl)-4-fluoro-phenyl]-amide]
IC50 [1]: 2.5 nM | IC50 [2]: 18 nM

C[C@]1(c2cc(NC(=O)c3ncc(Cl)cc3Cl)ccc2F)N=C(N)O[C@@H]2COC[C@@H]21 [Example 2, 3,5-Dichloro-pyridine-2-carboxylic acid [3-((3aS,7S,7aS)-5-amino-7-methyl-3,3a,7,7a-tetrahydro-1H-2,4-dioxa-6-aza-inden-7-yl)-4-fluoro-phenyl]-amide]
IC50 [1]: 0.8 nM | IC50 [2]: 14 nM

NC1=N[C@](CF)(c2cc(NC(=O)c3ccc(F)cn3)ccc2F)[C@H]2COC[C@H]2O1 [Example 15, 5-Fluoro-pyridine-2-carboxylic acid [3-((3aS,7S,7aS)-5-amino-7-fluoromethyl-3,3a,7,7a-tetrahydro-1H-2,4-dioxa-6-aza-inden-7-yl)-4-fluoro-phenyl]-amide]
IC50 [1]: 2.5 nM

C[C@]1(c2cc(NC(=O)c3ccc(C#N)cn3)ccc2F)N=C(N)O[C@@H]2COC[C@@H]21 [Example 4, 5-Cyano-pyridine-2-carboxylic acid [3-((3aS,7S,7aS)-5-amino-7-methyl-3,3a,7,7a-tetrahydro-4H-2,4-dioxa-6-aza-inden-7-yl)-4-fluoro-phenyl]-amide]
IC50 [2]: 17 nM

CC#CCOc1cnc(C(=O)Nc2ccc(F)c([C@@]3(C)N=C(N)O[C@@H]4COC[C@@H]43)c2)cn1 [Example 7, 5-But-2-ynyloxy-pyrazine-2-carboxylic acid [3-((3aS,7S,7aS)-5-amino-7-methyl-3,3a,7,7a-tetrahydro-4H-2,4-dioxa-6-aza-inden-7-yl)-4-fluoro-phenyl]-amide]
IC50 [2]: 47 nM

C[C@]1(c2cc(NC(=O)c3ccc(Cl)cn3)ccc2F)N=C(N)O[C@]2(C(F)(F)F)COC[C@H]12 (racemic) [Example 21, N-(3-((4SR,4aSR,7aSR)-2-amino-4-methyl-7a-(trifluoromethyl)-4a,5,7,7a-tetrahydro-4H-furo[3,4-e][1,3]oxazin-4-yl)-4-fluorophenyl)-5-chloropicolinamide]
IC50 [1]: 34 nM

C[C@]1(c2cc(NC(=O)c3ccccn3)ccc2F)N=C(N)O[C@@H]2COC[C@@H]21 [Example 5, Pyridine-2-carboxylic acid [3-((3aS,7S,7aS)-5-amino-7-methyl-3,3a,7,7a-tetrahydro-4H-2,4-dioxa-6-aza-inden-7-yl)-4-fluoro-phenyl]-amide]
IC50 [1]: 8 nM | IC50 [2]: 37 nM
